Source: patent US20110297235A1, “USE OF TRIARYLAMINE DERIVATIVES AS HOLE-CONDUCTING MATERIALS IN ORGANIC SOLAR CELLS AND ORGANIC SOLAR CELLS CONTAINING SAID TRIARYLAMINE DERIVATIVES” (BASF SE, priority 2009, published 2011)
In brackets after ≈: the same amount, converted by molar mass.

Assays:
[1] = Decomposition temperature Td by means of TGA; assay type: physicochemical
[2] = Glass transition temperature Tg and morphology M by means of DSC; assay type: physicochemical
[3] = physchem; settings: organic solvent or mixture
[4] = in vivo; cited from earlier work

| Compound | decomposition temperature Td [1] | glass transition temperature Tg [2] | solubility ([3]; solubility L in chlorobenzene) | solubility ([3]; solubility in Tetrahydrofuran) | solubility ([3]; solubility in Toluene) | solubility ([3]; solubility in Ethyl acetate) | solubility ([3]; solubility in Anisole) | LD50 [4] |
| --- | --- | --- | --- | --- | --- | --- | --- | --- |
| COc1ccc(N(c2ccc(OC)cc2)c2ccc(-c3ccc(N(c4ccc(OC)cc4)c4ccc(C5(c6ccc(N(c7ccc(OC)cc7)c7ccc(-c8ccc(N(c9ccc(OC)cc9)c9ccc(OC)cc9)cc8)cc7)cc6)CCCCC5)cc4)cc3)cc2)cc1 [ID452] | 450 °C | 123 °C | 650 to 1300 mg/mL (≈ 525 to 1050 mM) | 300 to 600 mg/mL (≈ 242 to 485 mM) | > 270 mg/mL | – | – | – |
| COc1ccc(N(c2ccc(-c3ccc(N(c4ccc(OC)cc4)c4ccc(-c5ccc(N(c6ccc(OC)cc6)c6ccc7c(c6)C(C)(C)c6ccccc6-7)cc5)cc4)cc3)cc2)c2ccc(-c3ccc(N(c4ccc(OC)cc4)c4ccc5c(c4)C(C)(C)c4ccccc4-5)cc3)cc2)cc1 [ID453] | 440 °C | 156 °C | 450 to 700 mg/mL (≈ 339 to 527 mM) | 340 to 680 mg/mL (≈ 256 to 512 mM) | 170 to 230 mg/mL (≈ 128 to 173 mM) | 40 mg/mL (≈ 30.1 mM) | – | – |
| COc1ccc(C(c2ccc(OC)cc2)c2ccc(N(c3ccc(OC)cc3)c3ccc(-c4ccc(N(c5ccc(OC)cc5)c5ccc(N(c6ccc(OC)cc6)c6ccc(OC)cc6)cc5)cc4)cc3)cc2)cc1 [ID480] | 430 °C | 105 °C | > 280 mg/mL | – | – | – | – | – |
| COc1ccc(N(c2ccc(OC)cc2)c2ccc3c(c2)C(C)(C)c2cc(N(c4ccc(OC)cc4)c4ccc(-c5ccc(N(c6ccc(OC)cc6)c6ccc7c(c6)C(C)(C)c6cc(N(c8ccc(OC)cc8)c8ccc(OC)cc8)ccc6-7)cc5)cc4)ccc2-3)cc1 [ID518] | 430 °C | 150 °C | 400 to 800 mg/mL (≈ 324 to 647 mM) | 550 to 1100 mg/mL (≈ 445 to 890 mM) | 160 to 240 mg/mL (≈ 129 to 194 mM) | > 400 mg/mL | – | – |
| COc1ccc(N(c2ccc(-c3ccc(N(c4ccc(OC)cc4)c4ccc(-c5ccc(N(c6ccc(OC)cc6)c6ccc(C)c(C)c6)cc5)cc4)cc3)cc2)c2ccc(-c3ccc(N(c4ccc(OC)cc4)c4ccc(C)c(C)c4)cc3)cc2)cc1 [ID519] | 450 °C | 128 °C | 450 to 900 mg/mL (≈ 391 to 782 mM) | > 500 mg/mL | 240 to 350 mg/mL (≈ 208 to 304 mM) | > 460 mg/mL | – | – |
| CCN(CC)c1ccc(N(c2ccc(-c3ccc(N(c4ccc(OC)cc4)c4ccc(OC)cc4)cc3)cc2)c2ccc(-c3ccc(N(c4ccc(-c5ccc(N(c6ccc(OC)cc6)c6ccc(OC)cc6)cc5)cc4)c4ccc(N(CC)CC)cc4)cc3)cc2)cc1 [ID521] | 420 °C | 138 °C | 400 to 550 mg/mL (≈ 323 to 444 mM) | 440 to 580 mg/mL (≈ 356 to 469 mM) | 500 to 1000 mg/mL (≈ 404 to 808 mM) | 90 to 110 mg/mL (≈ 72.7 to 88.9 mM) | – | – |
| COc1ccc(N(c2ccc(OC)cc2)c2ccc(-c3ccc(N(c4ccc(OC)cc4)c4ccc5c(c4)c4cc(N(c6ccc(OC)cc6)c6ccc(-c7ccc(N(c8ccc(OC)cc8)c8ccc(OC)cc8)cc7)cc6)ccc4n5-c4ccccc4)cc3)cc2)cc1 [ID522] | 450 °C | 158 °C | 900 to 1400 mg/mL (≈ 723 to 1120 mM) | 400 to 600 mg/mL (≈ 321 to 482 mM) | 490 to 980 mg/mL (≈ 394 to 787 mM) | 600 to 1200 mg/mL (≈ 482 to 964 mM) | – | – |
| COc1ccc(N(c2ccc(OC)cc2)c2ccc(-c3ccc(N(c4ccc(OC)cc4)c4ccc5c(c4)Cc4cc(N(c6ccc(OC)cc6)c6ccc(-c7ccc(N(c8ccc(OC)cc8)c8ccc(OC)cc8)cc7)cc6)ccc4-5)cc3)cc2)cc1 [ID523] | 450 °C | 141 °C | 1250 to 2500 mg/mL (≈ 1070 to 2140 mM) | 400 to 550 mg/mL (≈ 343 to 471 mM) | 900 to 1800 mg/mL (≈ 771 to 1540 mM) | 240 to 480 mg/mL (≈ 206 to 411 mM) | – | – |
| CCOc1ccc(N(c2ccc(C3=CCC(N(c4ccc(OC)cc4)c4ccc(-c5ccc(N(c6ccc(OC)cc6)c6ccc(-c7ccc(N(c8ccc(OCC)cc8)c8cccc9ccccc89)cc7)cc6)cc5)cc4)C=C3)cc2)c2cccc3ccccc23)cc1 (centres unmarked) [ID565] | 450 °C | 143 °C | > 900 mg/mL | > 850 mg/mL | 400 to 800 mg/mL (≈ 326 to 653 mM) | < 40 mg/mL | > 1000 mg/mL | – |
| CCCCC(CC)COc1ccc(N(c2ccc(-c3ccc(N(c4ccc(OC)cc4)c4ccc(OC)cc4)cc3)cc2)c2ccc(-c3ccc(N(c4ccc(OCC(CC)CCCC)cc4)c4ccc(-c5ccc(N(c6ccc(OC)cc6)c6ccc(OC)cc6)cc5)cc4)cc3)cc2)cc1 (centres unmarked) [ID568] | 360 °C | 65 °C | > 650 mg/mL | – | – | – | – | – |
| CCCCCCC1(CCCCCC)c2cc(N(c3ccc(OCC(CC)CCCC)cc3)c3ccc(-c4ccc(N(c5ccc(OC)cc5)c5ccc(OC)cc5)cc4)cc3)ccc2-c2ccc(N(c3ccc(OCC(CC)CCCC)cc3)c3ccc(-c4ccc(N(c5ccc(OC)cc5)c5ccc(OC)cc5)cc4)cc3)cc21 (centres unmarked) [ID569] | 440 °C | 47 °C | 400 to 800 mg/mL (≈ 261 to 522 mM) | – | – | – | – | – |
| COc1ccc(N(c2ccc(C)cc2)c2ccc(-c3ccc(N(c4ccc(OC)cc4)c4ccc(-c5ccc(N(c6ccc(OC)cc6)c6ccc(-c7ccc(N(c8ccc(C)cc8)c8ccc(OC)cc8)cc7)cc6)cc5)cc4)cc3)cc2)cc1 [ID572] | 450 °C | 138 °C | > 900 mg/mL | > 800 mg/mL | > 500 mg/mL | 60 to 100 mg/mL (≈ 53.4 to 89 mM) | > 400 mg/mL | – |
| COc1ccc(N(c2ccc(OC)cc2)c2ccc(-c3ccc(N(c4ccc(OC)cc4)c4ccc(-c5ccc(N(c6ccc(OC)cc6)c6ccc(-c7ccc(N(c8ccc(OC)cc8)c8ccc(OC)cc8)cc7)cc6)s5)s4)cc3)cc2)cc1 [ID575] | 440 °C | 110 °C | > 400 mg/mL | – | – | – | – | – |
| COc1ccc(N(c2ccc(OC)cc2)c2ccc(-c3ccc(N(c4ccc(-c5ccc(N(c6ccc(-c7ccc(N(c8ccc(OC)cc8)c8ccc(OC)cc8)cc7)cc6)c6cc(F)c(OC)c(F)c6)cc5)cc4)c4cc(F)c(OC)c(F)c4)cc3)cc2)cc1 [ID629] | 430 °C | 134 °C | > 2000 mg/mL | > 2000 mg/mL | > 1500 mg/mL | > 1300 mg/mL | > 1500 mg/mL | – |
| COc1ccc(N(c2ccc(OC)cc2)c2ccc(-c3ccc(N(c4ccc(OC)cc4)c4ccc(-c5ccc(N(c6ccc(OC)cc6)c6ccc(-c7ccc(N(c8ccc(OC)cc8)c8ccc(OC)cc8)cc7)cc6)c(C)c5)cc4C)cc3)cc2)cc1 [ID631] | 440 °C | 134 °C | > 1300 mg/mL | 1000 to 2000 mg/mL (≈ 845 to 1690 mM) | 500 to 1000 mg/mL (≈ 422 to 845 mM) | 700 to 1400 mg/mL (≈ 591 to 1180 mM) | 500 to 1000 mg/mL (≈ 422 to 845 mM) | – |
| Clc1ccccc1 [chlorobenzene] | – | – | – | – | – | – | – | 2900 mg/kg |
| COc1ccc(N(c2ccc(OC)cc2)c2ccc3c(c2)C2(c4cc(N(c5ccc(OC)cc5)c5ccc(OC)cc5)ccc4-3)c3cc(N(c4ccc(OC)cc4)c4ccc(OC)cc4)ccc3-c3ccc(N(c4ccc(OC)cc4)c4ccc(OC)cc4)cc32)cc1 [spiro-MeOTAD, 2,2′,7,7′-tetrakis(N,N-di-p-methoxyphenyl-amine)-9,9′-spirobifluorene, reference compound] | 440 °C | 120 °C | 200 to 230 mg/mL (≈ 163 to 188 mM) | 120 to 160 mg/mL (≈ 97.9 to 131 mM) | 100 mg/mL (≈ 81.6 mM) | < 6 mg/mL | 65 to 75 mg/mL (≈ 53 to 61.2 mM) | – |
